The source of these data is PubChem BioAssay (NCI).

Molecules are shown by their SMILES.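 These data come from cells grown in 96-well plates and exposed to compound for 48 hours at five concentrations. The concentration for full growth arrest is given as TGI.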

Common to all, as to assay: NCI tumour cell line growth inhibition, 48 h
Experiment [1] concerns RXF 393 renal.
The test system of experiment [2] is CAKI-1 renal.
In experiment [3] the test system is A498 renal.
Experiment [4] relates to SK-OV-3 ovarian.
Experiment [5] concerns SK-MEL-5 melanoma.
The subject of experiment [6] is MDA-MB-435.
The subject of experiment [7] is SF-295 CNS.
The test system of experiment [8] is MCF7 breast.
The subject of experiment [9] is LOX IMVI melanoma.
Experiment [10] deals with NCI/ADR-RES ovarian.
Experiment [11] concerns MDA-N.
The test system of experiment [12] is 786-0 renal.
Experiment [13] has as its system NCI-H460 lung.
The subject of experiment [14] is COLO 205 colon.
The subject of experiment [15] is EKVX NSCLC.
Experiment [16] relates to HS 578T breast.
In experiment [17] the test system is MALME-3M melanoma.
For experiment [18], the system named is NCI-H23 lung.

As to `Cc1cc2nc(N3C(=O)/C(=C/c4ccccc4S)N=C3c3ccccc3)sc2cc1C`, the TGI in [1] is 94.4 µM; in experiment [2] it was greater than 100 µM; in [3] it was 55.1 µM; in experiment [4], greater than 100 µM; in experiment [5] it was greater than 100 µM; in experiment [6], 95.9 µM. Besides, the TGI was greater than 100 µM in experiment [7]; greater than 100 µM in experiment [8]; greater than 100 µM in experiment [9]; 92.3 µM in [10]; 39.1 µM in [11]; 60.5 µM in [12]. The TGI was greater than 100 µM in experiment [13], 98.5 µM in experiment [14], greater than 100 µM in experiment [15] and greater than 100 µM in experiment [16].
In the case of `Nc1ncnc2c1ncn2C1OC(CO)C(O)C(O)C1O` (centres undefined), the TGI in experiment [2], in experiment [3], in experiment [5], in experiment [6], in experiment [7] and in experiment [8] was greater than 100 µM each time. The TGI in [9], in experiment [10], in experiment [11], in [17], in [12] and in experiment [13] was greater than 100 µM in each case. In addition, the TGI in experiment [14], in experiment [15], in experiment [16] and in [18] was greater than 100 µM in each case.
As for `CC1(C)C/C(=N/O)c2c(nc3ccc4ccccc4c3c2-c2ccc(Cl)cc2)C1`, the TGI is 39.4 µM in [1]; 26.3 µM in experiment [2]; 39.6 µM in [3]; 34.7 µM in experiment [4]; greater than 100 µM in experiment [5]; greater than 100 µM in experiment [6]. In addition, the TGI was 22.8 µM in experiment [7]; 24.1 µM in experiment [8]; 26.6 µM in experiment [9]; 39.3 µM in [10]; greater than 100 µM in experiment [11]; 15.2 µM in experiment [12]. The TGI in experiment [13] is 19.7 µM; in [14], 72.8 µM; in experiment [15], 29.7 µM; in experiment [16], 76.2 µM; in experiment [18], 46.7 µM.
Regarding `C=CCN1C(=O)/C(=C/c2ccc(C)cc2)NC1=S`, the TGI in experiment [1], in [2], in [3], in experiment [4], in experiment [5] and in [6] was greater than 100 µM each time. For the same molecule, the TGI in [7], in experiment [8], in [9], in [10], in [11] and in experiment [12] was greater than 100 µM each time. Moreover, the TGI in [13] is greater than 100 µM; in [14] it was greater than 100 µM; in experiment [15], 97.1 µM; in experiment [16], greater than 100 µM; in experiment [18], greater than 100 µM.
With `CC1=C(C(=O)N(C(C)C)C(C)C)CC(C(=O)N(C(C)C)C(C)C)=C(C)N1`, the TGI in experiment [1], in [2], in experiment [3], in experiment [4], in [5] and in experiment [6] was greater than 100 µM each time. In addition, the TGI in experiment [7], in experiment [8], in [9], in [10], in experiment [11] and in [12] was greater than 100 µM in each case. The TGI in [13], in [14], in experiment [15], in experiment [16] and in [18] was greater than 100 µM throughout.
For `O=C(Nc1ccccc1)n1[nH]c(=O)n(-c2ccccc2)c1=O`, the TGI in experiment [2], in experiment [3], in experiment [4], in experiment [5], in experiment [6] and in experiment [7] was greater than 100 µM throughout. The TGI in [8], in experiment [9], in experiment [10], in [11], in experiment [17] and in experiment [12] was greater than 100 µM in each case. The TGI in experiment [13], in [14], in experiment [16] and in [18] was greater than 100 µM each time.
For the molecule `COc1ccc(/C=C2\N=C(SC)N(CN3CCCCC3)C2=O)cc1`, the TGI in [3], in experiment [4], in experiment [5], in experiment [6], in [7] and in experiment [8] was greater than 100 µM each time. Moreover, the TGI in experiment [9], in [10], in [11], in experiment [17], in experiment [12] and in experiment [14] was greater than 100 µM each time. The TGI in experiment [15], in [16] and in experiment [18] was greater than 100 µM in each case.
